{
  "source": "patent US8580496B2",
  "about": "“Method and kit for the detection of genes associated with PIK3CA mutation and involved in PI3K/AKT pathway activation in the ER-postitive and HER2-positive subtypes with clinical implications” (Universite Libre de Bruxelles, priority 2008, dated 2013)",
  "key": {"[1]": {"tested_on": "breast cancer patients", "test": "Clinical outcome of breast cancer patients treated with tamoxifen, by PIK3CA mutated signature", "type": "in vivo, human", "excerpt": "Primary breast cancer tumour samples from a previously described “tamoxifen-only treated” data set (Loi, 2007; J. Clin Oncol., 25, 1239-46;) were collected for DNA extraction and mutation analysis. The inventors obtained DNA from 173 samples for PIK3CA mutation sequencing and from 131 samples for AKT1 mutation analysis. The median follow-up of these samples was 9.0 yrs (range: 8.2-9.8 yrs), with 45 (28%) distant metastatic events.\nPart of the tamoxifen-treated dataset has previously been described (Loi, 2007). Another 77 primary breast cancer samples also treated with tamoxifen monotherapy with corresponding Affymetrix gene expression data was also used for the survival analysis.\nThe inventors have developed an index called the PIK3CA index that could measure the similarity between the expression profile of any given tumour sample and the PI3K/AKT pathway activation by breast cancers with a PIK3CA mutation.\nStatistical analysis was performed using the SPSS statistical software package (SPSS Inc. Chicago, Ill.) version 13.0. […]\nBreast cancer molecular subgroups were defined using a previously reported method of WIRAPATI ET AL, 2008, Breast cancer […], 10, R65. The gene expression grade index (GGI) was used as a quantification of the expression of proliferation genes (SOTRIOU ET AL, 2006). […]"}, "[2]": {"tested_on": "PIK3CA mutant lines including MCF7 and T47D", "test": "Sensitivity of breast cancer cell lines to tamoxifen, PIK3CA mutant vs normal lines", "type": "cell-based"}},
  "data": [
    {"smiles": "CC/C(=C(\\c1ccccc1)c1ccc(OCCN(C)C)cc1)c1ccccc1", "note": "[tamoxifen]", "values": [
      {"measurement": "response to tamoxifen", "setting": "[1]; Her2 positive BC patients with the mutated PIK3CA signature vs the other Her2 positive patients", "value": "responded better"},
      {"measurement": "benefit from tamoxifen (clinical outcome)", "setting": "[1]; luminal B tumours, higher vs lower expression levels of the PIK3CA signature (FIG. 4)", "value": "benefit better"},
      {"measurement": "sensitivity to tamoxifen", "setting": "[2]", "value": "more sensitive"}
    ]}
  ]
}
